In US8207136B2, “Nucleoside compounds and methods of use thereof” (The Board of Trustees of the University of Illinois, priority 2005, dated 2012):
pIC50: −log10 of the molar value. Like-named read-outs stand apart in the source and are kept apart here. Starred links: 1 amine or outer side, 2 acyl side, 3 side chain; linkers in the order of their positions; H or OH if unused. Positions of bridges follow the written chain, without caps; N, C: chain ends. Non-standard residues stand in square brackets, D forms with d. Residues, ends and D or L forms follow the SMILES beside them. Chains are numbered I, II in the order given. Actinocin(9to1) = Cc1c2oc3c(C)ccc(C(=O)[*:1])c3nc-2c(C(=O)[*:2])c(N)c1=O; NMeV = CN[C@H](C(=O)O)C(C)C; Sar = CNCC(=O)O

Assays:
RNA polymerase II = biological target: T1, RNA polymerase II (Homo sapiens, UniProt P24928); assay: Nuclear run-on assay, nuclei isolated from untreated HCT-116 cells then treated; assay type: biochemical; conditions: 50 μM ARC, 50 μM DRB or 2 μg/ml α-amanitin
T1 construct: nuclei were isolated from normally growing untreated HCT-116 cells and treated with each of these agents; endogenous in cells; host or cells: nuclei of HCT-116 colon cancer cells
Procedure: (§1) Run-on assays with isolated nuclei were performed as described. Briefly, cells treated with the indicated agents were lysed with hypotonic buffer (10 mM Tris-HCl pH 7.4, 10 mM NaCl and 35 mM MgCl2) and nuclei collected by centrifugation and resuspended in nuclear storage buffer (50 mM HEPES pH 8.0, 5 mM MgCl2, 0.5 mM DTT, 1 mg/ml BSA and 25% (v/v) glycerol) at about 5×10^8 nuclei/ml and stored at −80° C. Transcription reactions were performed in 200 μl volume consisting of 1×10^7 nuclei in the presence of 0.12 M KCl, 7 mM Mg(Ac)2, 25 μCi of [^32P]GTP, 500 μM ATP, UTP and CTP at 30° C. Samples were collected at various time points (18 μl/time point—0, 5, 10, 20 and 30 min) and the reaction terminated by the addition of 57 μl of Sarkosyl solution (1% Sarkosyl, 0.1 M Tris pH 8.0, 0.1 M NaCl, 10 mM EDTA and 200 μg/ml tRNA). The stopped reactions were transferred to Whatman DE81 paper, and washed four times with wash buffer (5% K2HPO4 and 0.3% Na4P2O7) for 10 min, followed by a 5-min water wash. Then the paper was briefly rinsed with 95% ethanol and allowed to dry completely. Radiation was quantitated using a liquid scintillation counter.
In order to evaluate the ability of ARC to bind to and inhibit RNA polymerase II directly (like α-amanitin) or indirectly (like DRB), nuclei were isolated from normally growing untreated HCT-116 cells and treated with each of these agents, and then assayed for rate of transcription by nuclear run-on assay.

[1] = tested on: RNA polymerase II transcription; assay: Nuclear run-on assay, nuclei from treated HCT-116 cells; assay type: cell-based, human; conditions: HCT-116 cells treated 2 hours with 1 mM
Procedure: as §1
Some transcriptional inhibitors such as DRB and flavopiridol repress p21 and hdm2 while increasing p53 levels. […] To evaluate this activity, HCT-116 cells were treated with one of DMSO (control), ARC or DRB, and nuclei were isolated. These nuclei were assayed for rate of transcription either in the presence or absence of α-amanitin using the nuclear run-on assay. […] If ARC inhibits polymerase I and III transcription, the rate of transcription should be substantially lower in the ARC+α-amanitin (FIG. 2A; curve 5) when compared with DMSO+α-amanitin (FIG. 2A; curve 4). However both of these rates of transcription were similar, implying that ARC might preferentially affect only RNA polymerase II transcription.

[2] = tested on: LIM1215 colon cancer cells; assay: Apoptosis by PI staining and flow cytometry in LIM1215 cells; assay type: cell-based, human; conditions: 50 μM, 48 hours
Procedure: For Flow Cytometry, cells were fixed in 70% ethanol and stored at −20° C. until further analysis. Equal numbers of fixed cells were then stained with PI solution (0.1% Triton X-100, 0.2 mg/ml DNase free RNase, 0.02 mg/ml propidium iodide) made in PBS for 15 min at 37° C. and analyzed by a flow cytometer.
In order to evaluate the extent to which ARC induces apoptosis relative to that of the other known nucleoside analog DRB, LIM1215 colon cancer cells were treated with either ARC or DRB for 48 hours.

HUVECs [3] = conditions: literature value [28]; read-out: IC50, cord formation; cited from earlier work
HUVECs [4] = conditions: literature value [28]; read-out: IC50, cell motility; cited from earlier work
p53 = assay: Gel shift assay with nuclear extracts and p53 consensus probe; assay type: cell-based, human; conditions: MCF-7 nuclear extracts
Procedure: Either purified p53 protein or nuclear extracts were used in the gel shift assays. For preparation of nuclear extracts, cells treated either with DMSO or different agents (doxorubicin, ARC and actinomycin D) were harvested 24 hours later and lysed in hypotonic buffer (10 mM HEPES pH 7.9, 1.5 mM MgCl2, 10 mM KCl, 0.2 mM PMSF, 0.5 mM DTT, 1 mM Na3VO4, 1 mM NaF, 1 mM Aprotinin and 1 mM Leupeptin), nuclei pelleted and treated with high-salt buffer (20 mM HEPES pH 7.9, 20% (v/v) glycerol, 1.5 mM MgCl2, 0.5 M KCl, 0.2 mM EDTA, 0.2 mM PMSF, 0.5 mM DTT, 1 mM Na3VO4, 1 mM NaF, 1 mM Aprotinin and 1 mM Leupeptin). Nuclear extracts (10 μg) or purified p53 protein (100 ng) were incubated with 0.5 ng of p53 consensus double-stranded oligos (5′-TACAGAACATGTCTAAGCATGCTGGGGACT-3′; Santa Cruz Biotechnology) that were labeled with [γ^32P]ATP. As a control, anti-p53 antibody (PAb421, EMD Biosciences) was used to supershift the p53/DNA complex. The reaction mixtures were resolved on a 4% acrylamide DNA-retardation gel, dried and exposed to X-ray film in the presence of intensifying screen.
Although the effects of ARC were p53-independent, ARC did affect some properties of p53. […] This is in contrast to actinomycin D, which is known to enhance the DNA binding ability of p53 [22]. […] To determine if ARC retains p53 in the cytoplasm, which may lead to decreased binding in the gel shift assays, p53 levels in nuclear lysates were examined.

CC[C@H](C)[C@@H]1NC(=O)CNC(=O)[C@@H]2Cc3c([nH]c4cc(O)ccc34)[S+]([O-])C[C@@H](NC(=O)CNC1=O)C(=O)N[C@@H](CC(N)=O)C(=O)N1C[C@H](O)C[C@H]1C(=O)N[C@@H]([C@@H](C)[C@@H](O)CO)C(=O)N2 (stereo in doubt) [α-amanitin]
rate of transcription, agent added to isolated nuclei (RNA polymerase II): dramatically inhibited transcription

OC[C@H]1O[C@@H](n2cnc3cc(Cl)c(Cl)cc32)[C@H](O)[C@@H]1O [DRB, 5,6-Dichloro-1-β-ribofuranosylbenzimidazole, reference compound]
rate of transcription versus control nuclei [1]: lower
rate of transcription, agent added to isolated nuclei (RNA polymerase II): did not affect the rate of transcription
apoptosis (PI staining, flow cytometry) [2]: 23.4%

CO[C@@H]1[C@H](OC(=O)NC(=O)CCl)CC[C@]2(CO2)[C@H]1[C@@]1(C)O[C@@H]1CC=C(C)C [TNP-470]
pIC50 (HUVECs [3]): ~6.15
pIC50 (HUVECs [4]): ~6.22

Cc1c2oc3c(C)ccc(C(=O)N[C@@H]4C(=O)N[C@H](C(C)C)C(=O)N5CCC[C@H]5C(=O)N(C)CC(=O)N(C)[C@@H](C(C)C)C(=O)O[C@@H]4C)c3nc-2c(C(=O)N[C@@H]2C(=O)N[C@H](C(C)C)C(=O)N3CCC[C@H]3C(=O)N(C)CC(=O)N(C)[C@@H](C(C)C)C(=O)O[C@@H]2C)c(N)c1=O [actinomycin D, reference compound] (I: T[dV]P[Sar][NMeV] / II: T[dV]P[Sar][NMeV]; ester I:1-I:C, II:1-II:C; linker I:N-II:N via Actinocin(9to1))
DNA binding ability of p53, agent alone (p53): increased the DNA binding ability of p53
